{"source": "paper PMC7097682", "about": "“Safety and Pharmacokinetics of CXCR4 Peptide Antagonist, LY2510924, in Combination with Durvalumab in Advanced Refractory Solid Tumors” (Journal of Pancreatic Cancer, 2020)", "key": {"[1]": {"system": "pancreatic cancer model", "conditions": "added to anti-PD-L1 monoclonal antibody regimen; cited from earlier work"}, "[2]": {"system": "cancer xenograft models", "conditions": "cell lines that express high levels of CXCR4; cited from earlier work"}, "[3]": {"system": "patients", "design": "method as in PMID 24727324", "conditions": "30 mg/day SC, monotherapy; cited from earlier work"}, "[4]": {"test": "LY2510924 pharmacokinetics in plasma, noncompartmental analysis", "conditions": "for AUC(0-inf) / Cmax: n = 3, geometric mean (CV%)", "protocol": "(§1) Blood samples were drawn from all patients for the assessment of LY2510924 in plasma and durvalumab concentrations in serum at prespecified time points. The PK of LY2510924 was assessed through intensive sampling, and the PK parameter estimates were calculated by standard noncompartmental methods of analysis. PK data for durvalumab were summarized by sampling time points, and a formal noncompartmental analysis was not conducted. Samples were analyzed using a validated liquid chromatography with tandem mass spectrometry. Summary statistics was tabulated for the PK parameters of LY2510924 and durvalumab by dose and study day."}, "[5]": {"test": "clinical", "conditions": "human, in vivo, sc, t1/2", "protocol": "as §1"}, "[6]": {"system": "syngeneic squamous cell carcinoma model", "conditions": "single agent or combination; no reference printed for the sentence; cited from earlier work"}, "[7]": {"test": "Durvalumab serum concentrations by sampling time point", "type": "in vivo, human", "protocol": "as §1"}, "[8]": {"conditions": "human, plasma, sc, Day 15, 20 mg/day SC"}, "[9]": {"conditions": "human, plasma, sc, Day 15, 30 mg/day SC"}}, "note": "Where a SMILES comes first, the peptide text is derived from it. Bridges are numbered along the chain shown (N, C = ends). [ ]: non-standard residue; d: D form. 2Nal = N[C@@H](Cc1ccc2ccccc2c1)C(=O)O; Lys(iPr) = CC(C)NCCCC[C@H](N)C(=O)O", "data": [{"molecule": "c1cc(CN2CCCNCCNCCCNCC2)ccc1CN1CCCNCCNCCCNCC1", "note": "[AMD3100]", "values": [{"measurement": "effect on T cells and antitumor efficacy of anti-PD-L1 monoclonal antibody", "setting": "[1]", "result": "T cell redistribution and rapid accumulation near tumors, enhancing the antitumor efficacy"}]}, {"molecule": "CC(C)NCCCC[C@H](NC(=O)[C@H]1CCC(=O)N[C@@H](Cc2ccccc2)C(=O)N[C@@H](Cc2ccc(O)cc2)C(=O)N[C@@H](CCCCNC(C)C)C(=O)N[C@H](CCCNC(=N)N)C(=O)N[C@@H](Cc2ccc3ccccc3c2)C(=O)NCC(=O)N1)C(N)=O", "note": "[LY2510924] (FY[Lys(iPr)][dR][2Nal]G[dE][Lys(iPr)]-NH2; lactam N-7)", "values": [{"measurement": "tumor growth and metastasis", "setting": "[2]", "result": "dose-dependent inhibition"}, {"measurement": "patients with dose-limiting toxicity (grade 3 increase in ANC >25,000 cells/μL for >5 days)", "setting": "[3]", "result": "two"}, {"measurement": "PK variability on AUC", "setting": "[4]; 20, 30 and 40 mg daily SC", "result": 69, "unit": "%"}, {"measurement": "PK variability on Cmax", "setting": "[4]; 20, 30 and 40 mg daily SC", "result": "~60", "unit": "%"}, {"measurement": "mean apparent volume of distribution", "setting": "[4]; 20, 30 and 40 mg daily SC, all nine patients", "result": 59, "unit": "L"}, {"measurement": "CL/F", "setting": "[4]; human, plasma, sc, 40 mg, mean apparent clearance, 20, 30 and 40 mg daily SC, all nine patients", "result": 117, "unit": "mL/min"}, {"measurement": "AUC(0-inf)", "setting": "[4]; [8]", "result": 1960, "unit": "ng·h/mL"}, {"measurement": "AUC(0-inf)", "setting": "[4]; [9]", "result": 4320, "unit": "ng·h/mL"}, {"measurement": "Cmax", "setting": "[4]; human, plasma, sc, Day 1, 20 mg/day SC, with durvalumab", "result": 747, "unit": "ng/mL"}, {"measurement": "Cmax", "setting": "[4]; human, plasma, sc, Day 1, 30 mg/day SC, with durvalumab", "result": 682, "unit": "ng/mL"}, {"measurement": "Cmax", "setting": "[4]; human, plasma, sc, Day 1, 40 mg/day SC, with durvalumab", "result": 1860, "unit": "ng/mL"}, {"measurement": "Cmax", "setting": "[4]; [8]", "result": 367, "unit": "ng/mL"}, {"measurement": "Cmax", "setting": "[4]; [9]", "result": 847, "unit": "ng/mL"}, {"measurement": "Cmax", "setting": "[4]; human, plasma, sc, Day 15, 40 mg/day SC", "result": 1680, "unit": "ng/mL"}, {"measurement": "half-life", "setting": "[5]", "result": 307, "unit": "min"}, {"measurement": "antitumor activity", "setting": "[6]", "result": "minimal activity"}]}, {"molecule": "durvalumab: selective, high-affinity, human immunoglobulin G1 monoclonal antibody that blocks PD-L1 binding to PD-1 and CD80", "values": [{"measurement": "peak concentration, geometric mean", "setting": "[7]; week 0, 1500 mg Q4W IV infusion over 60 min, n = 8, %CV 33.2%", "result": 418, "unit": "µg/mL"}, {"measurement": "trough concentration, geometric mean", "setting": "[7]; week 4, 1500 mg Q4W IV, n = 8, %CV 50.3%", "result": 106, "unit": "µg/mL"}, {"measurement": "trough concentration, geometric mean", "setting": "[7]; week 8, 1500 mg Q4W IV, n = 4, %CV 58.4%", "result": 133, "unit": "µg/mL"}, {"measurement": "peak concentration, geometric mean", "setting": "[7]; week 12, 1500 mg Q4W IV, n = 4, %CV 30.8%", "result": 549, "unit": "µg/mL"}, {"measurement": "trough concentration, geometric mean", "setting": "[7]; week 12, 1500 mg Q4W IV, n = 4, %CV 46.8%", "result": 126, "unit": "µg/mL"}, {"measurement": "trough concentration, geometric mean", "setting": "[7]; week 20, 1500 mg Q4W IV, n = 1", "result": 74.9, "unit": "µg/mL"}]}]}
